# Measured values taken from patent US6417159B1 (Queen's University at Kingston, priority 1996, dated 2002).
# What was measured:
# [1] = test system: PC12 cells; test: NGF-mediated neurite growth by PC12 cells; assay type: cell-based, rat
# Method: (§1) PC12 cells or PC12^nnr5 cells (Loeb et al., 1991) were seeded on poly-D-lysine-coated (0.1 mg·ml^−1, overnight) 96-well microculture dishes (Falcon) at approximately 800 cells per well with RPMI with 10% fetal calf serum. Peptides were added to replicate wells 48 hours before, or at the time of, addition of NGF. NGF was prepared by the method of Mobley et al. (1976) and used at 1-2 nM. Other additives were diluted at least 100-fold and added to the wells as described. At various times following incubation at 37° C., 5% CO2, wells were scored for neurite-bearing cells by serial counting of representative circumferences of each well.
# (§2) A Leitz Diavert inverted microscope with phase optics was used to score neurite growth. For both PC12 cells and sensory neurons, a neurite was scored as such if its calibre from origin to terminal was approximately the same and the length was equal to or greater than 1.5 cell body diameters.
# [2] = test system: PC12^nnr5 cells; test: NGF-mediated neurite growth by PC12nnr5 cells; assay type: cell-based, rat; conditions: absence or presence of R3 peptide
# Method: as §1, §2
# [3] = test system: PC12 cells; test: Binding of [125I]NGF to PC12 cells; parameters: species or system rat; conditions: co-incubated with [125I]NGF
# Method: PC12 cells were removed from culture dishes with CMF, washed, and incubated at a concentration of 10^6 per ml in Hepes-Krebs-Ringer (HKR) buffer buffer with 1 mg·ml^−1 BSA for 90 minutes at 37° C. in the presence of 40 pM [^125I]NGF in the absence and presence of excess unlabeled NGF, and in the absence and presence of R3 peptide. Aliquots of 100 μl were removed in replicates and mircocentrifuged at 10,000×g for 1 minute. Supernatants were removed, tips were cut from the microcentrifuge tube and counted in a gamma counter. Specific binding was defined as the difference between binding of the ligand in the absence and presence of unlabeled NGF, and fractional specific binding in the absence and presence of R3 peptide was compared. Studies of [^125I]NGF uptake into PC12 and PC12^nnr5 cells were carried out in the absence and presence of 10 μM R3 peptide and following a 24-hour exposure of PC12 cultures to 10 μM R3 peptide. Cells were eposed to 20 pM or 0.2 nM [^125I]NGF for periods of time up to 240 minutes (steady state) at 37° C. The cells were then briefly acid-washed as described by Bernd and Greene (1984), and aliquots were prepared for gamma counting as described. NGF was radioiodinated as described in Sutter et al. (1979b).
# [4] = test system: TrkA; test: NGF-mediated TrkA tyrosine phosphorylation in PC12 cells; assay type: cell-based, rat; conditions: prior to or at the time of NGF exposure
# Method: FIG. 7B illustrates the influence of peptide R3 on TrkA phosphorylation. PC12 cells were treated with R3 for 30 min or 24 h and suspended in HKR buffer at a concentration of 10^7·ml^−1. NGF (50 ng·ml^−1) was added where indicated and samples incubated for 15 min at 37° C. Cells were subsequently harvested by centrifugation and the pellets dissolved in lysis buffer and immunoprecipitated for TrkA as described. Immunoprecipitated proteins were separated using 7.5% polyacrylamide gels (Laemmli) and transblotted to PVDF membrane. The membrane was processed for anti-phosphotyrosine with HRP-conjugated antibody RC-20 as described by the manufacture's literature (Transduction Laboratories Ltd.).
# TrkA phosphorylation was performed by a modification of the method of Kaplan et al. (1991 a and b). PC12 cells were harvested as described and suspended at a concentration of 10^7 ml in HKR buffer. NGF (100 ng·ml^−1) was added and the cell suspension was incubated for 30 min at 37° C. and pelleted at 4° C. The cells were solublized with lysis buffer, and TrkA protein was immunoprecipitated as described. Proteins were fractionated by 7.5% SDS-PAGE, and transferred to nitrocellulose for immunoblot analysis as described (Harlow and Lane, 1988). Phosphoproteins were visualized using anti-phosphotyrosine clone 4G10 (UBI) as described in the supplier's product literature.
sequence,measurement,setting,value
LDALLAALRRIQR [R3],"Effect of R3 on enhancement of NGF-mediated neurite growth in presence of Mg2+, in words",[1]; 10 mM Mg^+2,inhibited completely
same,"Neurite growth-enhancing effect of R3 in presence of pertussis toxin, in words",[1]; PC12 cells pre-treated with pertussis toxin,did not influence
same,"Effect on NGF-mediated neurite growth, co-incubation, in words","[1]; PC12 cells, peptide co-incubated with NGF",enhanced temporally the neurite growth response
same,Time of maximal effect on NGF-mediated neurite growth,[1]; all concentrations of R3,40 to 48 h
same,"Effect on neurite growth response to NGF, pre-incubation, in words",[1]; peptide present 24 or 48 hours prior to addition of NGF,inhibited transiently
same,"Neurite growth in PC12nnr5 cells with NGF, in words",[2],no effects on neurite growth
same,"Effect on [125I]NGF binding, in words",[3],no effect on steady-state total or non-displaceable binding
same,"Influence on NGF-mediated tyrosine phosphorylation of TrkA, in words",[4],did not consistently influence
